Source: US20140094370A1, “FORMULATION COMPONENT” (SYNGENTA LIMITED, priority 2011, published 2014)

What was measured:
[1] = test system: Polygonum convolvulus (POLCO), Brachiaria platyphylla (BRAPL), Digitaria sanguinalis (DIGSA) and Amaranthus tuberculatus (AMATU); assay: Glasshouse herbicide efficacy test of mesotrione compositions with adjuvant against four weed species; assay type: in vivo
Procedure: The aromatic ester bis-2-ethylhexyl phthalate was tested as an adjuvant in compositions of mesotrione, in a glasshouse against four weed species. An agrochemical composition was prepared containing 0.5% v/v of the adjuvant in a track sprayer and was applied at a volume of 200 liters per hectare. Mesotrione was applied at either 60 or 120 grams per hectare. The adjuvant oils were emulsified using a small amount of the surfactant Pluronic® PE 10500, which was present in the composition at a concentration of 0.02% v/v. The weed species and their growth stage at spraying were Polygonum convolvulus (POLCO; growth stage 13), Brachiaria platyphylla (BRAPL; growth stage 13)
Digitaria sanguinalis (DIGSA; growth stage 13) and Amaranthus tuberculatus (AMATU; growth stage 13).
Each spray test was replicated three times. The efficacy of the herbicide was assessed visually and expressed as a percentage of the leaf area killed. Samples were assessed at time periods of 7, 14 and 21 days following application. The results shown below in Table 10 are mean averages over the two rates of mesotrione, three replicates, four weed species and the three assessment timings, and are compared to the efficacy of mesotrione in the absence of adjuvant and mesotrione plus the commercial tank mix adjuvant Turbocharge® (applied at 0.5% v/v).

[2] = test system: Chenopodium album (CHEAL), Abutilon theophrasti (ABUTH), Setaria viridis (SETVI) and Xanthium strumarium (XANST); assay: Glasshouse herbicide efficacy test of fomesafen compositions with adjuvant against four weed species; assay type: in vivo; conditions: mean over fomesafen 60 and 120 g/ha, three replicates, four weed species, 2, 7 and 14 days after application; adjuvant 0.5% v/v; 200 liters per hectare
Procedure: The aromatic ester bis-2-ethylhexyl phthalate was tested as an adjuvant in compositions of fomesafen, in a glasshouse against four weed species. An agrochemical composition was prepared containing 0.5% v/v of the adjuvant in a track sprayer and was applied at a volume of 200 liters per hectare. Fomesafen was applied at a rate of either 60 or 120 grams per hectare. The adjuvant oils were emulsified using a small amount of the surfactant Pluronic® PE 10500, which was present in the composition at a concentration of 0.02% v/v. The weed species and their growth stage at spraying were Chenopodium album (CHEAL; growth stage 14), Abutilon theophrasti (ABUTH; growth stage 12), Setaria viridis (SETVI; growth stage 13), and Xanthium strumarium (XANST; growth stage 12).
Each spray test was replicated three times. The efficacy of the herbicide was assessed visually and expressed as a percentage of the leaf area killed. Samples were assessed at time periods of 2, 7 and 14 days following application. The results shown below in Table 11 are mean averages over the two rates of fomesafen, three replicates, four weed species and the three assessment timings, and are compared to the efficacy of fomesafen without adjuvant and fomesafen with the commercially available adjuvant Turbocharge® (applied at 0.5% v/v).

## CS(=O)(=O)c1ccc(C(=O)C2C(=O)CCCC2=O)c([N+](=O)[O-])c1 [Mesotrione]
[1]; mean over mesotrione 60 and 120 g/ha, three replicates, four weed species, 7, 14 and 21 days after application, adjuvant 0.5% v/v, 200 liters per hectare
  Mean percentage kill (percentage of the leaf area killed), mean across species: 49.6 B %

## CS(=O)(=O)NC(=O)c1cc(Oc2ccc(C(F)(F)F)cc2Cl)ccc1[N+](=O)[O-] [Fomesafen]
[2]
  Mean percentage kill (percentage of the leaf area killed), mean across species: 14.3 C %

## CCCCC(CC)COC(=O)c1ccccc1C(=O)OCC(CC)CCCC (stereo not drawn) [bis-2-ethylhexylphthalate, Bis(2-ethylhexyl) phthalate]
[1]; adjuvant 0.5% v/v with mesotrione, versus mesotrione without adjuvant
  Adjuvant effect on efficacy of the herbicide (in words): increases the efficacy of the herbicide mesotrione
